Data on ten compounds can be found in ChEMBL document CHEMBL1201862, “PubChem BioAssay data set” (2004).

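Values below derive from 48-hour exposures of cells grown in 96-well plates, with endpoints linearly interpolated between the two concentrations bracketing the appropriate inhibition level. GI50: concentration for 50% inhibition of growth.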 Active and inactive are the calls of the source. Rule as the data show it: active = GI50 up to about 1.1 µM and inactive = higher. Where only a bound is given, the exact number is not on record here.

Test systems include COLO 205; CAKI-1; M14; HCT-15; SN12C; RXF 393; HT-29; XF498; A549; Malme-3M; RPMI-8226; SK-MEL-2; HOP-62; TK-10; SF-295; SK-MEL-28; HCC 2998; K562; SNB-78.
What all share (assay): NCI-60 cell line screen, 48 h

In the case of `Cc1cc(NS(=O)(=O)c2ccc(Nc3c4ccccc4nc4c(C(=O)Nc5ccc(S(=O)(=O)N=C(N)N)cc5)cccc34)cc2)no1`, the GI50 with COLO 205 is > 100 µM (inactive); in the test with CAKI-1 it was > 100 µM (inactive); with M14, > 100 µM (inactive); with HCT-15, more than 100 µM; in the test with SN12C it was > 100 µM (inactive); in the test with RXF 393 it was > 100 µM (inactive). Also, the GI50 with HT-29, in the test on XF498, in the test with A549, in the test with Malme-3M, in the test with RPMI-8226 and in the test on SK-MEL-2 was > 100 µM (inactive) throughout. For the same compound, the GI50 with HOP-62, in the test with TK-10, in the test on SF-295, in the test with SK-MEL-28, in the test on HCC 2998 and in the test on K562 was > 100 µM (inactive) throughout. Moreover, in the test on SNB-78, the GI50 was > 100 µM (inactive).
Consider `NC(=O)C(=Cc1ccc(C(O)P(=O)(O)O)cc1)C(N)=O` (stereo not given), for which the GI50 is > 100 µM (inactive) with COLO 205; > 100 µM (inactive) in the test on CAKI-1; > 100 µM (inactive) in the test with M14; more than 100 µM with HCT-15; > 100 µM (inactive) with SN12C; > 100 µM (inactive) in the test on RXF 393. In addition, the GI50 with HT-29, with XF498, in the test with A549, in the test on Malme-3M, with RPMI-8226 and in the test with SK-MEL-2 was > 100 µM (inactive) throughout. Moreover, the GI50 in the test on HOP-62, in the test on TK-10, in the test on SF-295, in the test on SK-MEL-28, in the test on HCC 2998 and in the test on K562 was > 100 µM (inactive) throughout. For the same compound, in the test with SNB-78, the GI50 was > 100 µM (inactive).
Consider `COC1CC(O[C@H]2CC[C@@]3(C)C(=CCC4(O)C3CCC35C(=O)OC6(C)O[C@@]43CCC65)C2)OC(C)C1O` (stereo not given in full), for which the GI50 with COLO 205 was > 100 µM (inactive); with CAKI-1, > 100 µM (inactive); in the test with M14, > 100 µM (inactive); in the test on HCT-15, more than 100 µM; in the test with SN12C, > 100 µM (inactive); in the test with RXF 393 it was > 100 µM (inactive). The GI50 with HT-29, in the test with XF498, in the test on A549, in the test on Malme-3M, with RPMI-8226 and with SK-MEL-2 was > 100 µM (inactive) each time. In addition, the GI50 in the test with HOP-62, with TK-10, in the test on SF-295, in the test on SK-MEL-28, in the test on HCC 2998 and in the test with K562 was > 100 µM (inactive) throughout. In addition, the GI50 with SNB-78 was > 100 µM (inactive).
In the case of `COc1ccc2c3c([nH]c(=O)c2c1C(=O)O)-c1ccccc1CC3`, the GI50 in the test on COLO 205 was > 100 µM (inactive); in the test on CAKI-1, > 100 µM (inactive); with M14, > 100 µM (inactive); in the test on HCT-15 it was more than 100 µM; in the test on SN12C it was > 100 µM (inactive); in the test on RXF 393, > 100 µM (inactive). For the same compound, the GI50 with HT-29, in the test on XF498, in the test on A549, with Malme-3M, in the test on RPMI-8226 and in the test with SK-MEL-2 was > 100 µM (inactive) throughout. In addition, the GI50 in the test on HOP-62, in the test with TK-10, in the test with SF-295, with SK-MEL-28, in the test on HCC 2998 and in the test with K562 was > 100 µM (inactive) each time. Besides, the GI50 with SNB-78 was 79.1 µM (inactive).
Take `CC1=Nc2c(O)nc(S)nc2NC(c2ccc(Cl)c(Cl)c2)C1` (stereo not given): the GI50 in the test on COLO 205 is 18 µM (inactive); in the test with CAKI-1, 30.3 µM (inactive); in the test with M14, 16.9 µM (inactive); in the test with HCT-15, 33.7 µM; with SN12C, 20.1 µM (inactive); in the test on RXF 393, 17.5 µM (inactive). The GI50 in the test with HT-29 was 24.3 µM (inactive); in the test on XF498, > 65.8 µM (inactive); with A549 it was 21.1 µM (inactive); in the test on Malme-3M, > 89.7 µM (inactive); in the test with RPMI-8226, > 100 µM (inactive); in the test with SK-MEL-2, > 100 µM (inactive). In addition, the GI50 with HOP-62 was 46.3 µM (inactive); in the test on TK-10, > 55.5 µM (inactive); with SF-295 it was 20.1 µM (inactive); in the test with SK-MEL-28, 18.3 µM (inactive); in the test on HCC 2998 it was 17.8 µM (inactive); in the test with K562, > 100 µM (inactive). In the test with SNB-78, the GI50 is 60.4 µM (inactive).
In the case of `CC[P+]1(CC)CCCC1`, the GI50 was > 100 µM (inactive) in the test with COLO 205; > 100 µM (inactive) in the test on CAKI-1; > 100 µM (inactive) with M14; more than 100 µM in the test with HCT-15; > 100 µM (inactive) in the test with SN12C; > 100 µM (inactive) in the test on RXF 393. The GI50 in the test on HT-29, with XF498, in the test with A549, in the test with Malme-3M, with RPMI-8226 and in the test with SK-MEL-2 was > 100 µM (inactive) throughout. Moreover, the GI50 in the test on HOP-62, with TK-10, in the test on SF-295, in the test on SK-MEL-28, in the test on HCC 2998 and in the test with K562 was > 100 µM (inactive) throughout. In addition, the GI50 in the test with SNB-78 is > 100 µM (inactive).
With `CCN(CC)c1ccc(/N=N/c2ccc(-c3nc4cccnc4o3)cc2)cc1`, the GI50 was > 100 µM (inactive) in the test on COLO 205; > 100 µM (inactive) in the test on CAKI-1; > 100 µM (inactive) in the test on M14; more than 100 µM with HCT-15; > 100 µM (inactive) in the test on SN12C; > 100 µM (inactive) in the test on RXF 393. Moreover, the GI50 in the test with HT-29, in the test with XF498, in the test on A549, in the test on Malme-3M, in the test with RPMI-8226 and in the test with SK-MEL-2 was > 100 µM (inactive) in each case. Further, the GI50 is > 100 µM (inactive) with HOP-62; > 100 µM (inactive) in the test with TK-10; > 100 µM (inactive) in the test with SF-295; > 100 µM (inactive) in the test on SK-MEL-28; 55.2 µM (inactive) in the test on HCC 2998; > 100 µM (inactive) with K562. Moreover, the GI50 in the test with SNB-78 was > 100 µM (inactive).
For the compound `Cn1cc2ccccc2c1-c1nc(F)nc(F)n1`, the GI50 in the test on COLO 205 is > 100 µM (inactive); in the test on CAKI-1, > 100 µM (inactive); with M14 it was > 100 µM (inactive); in the test with HCT-15, more than 100 µM; in the test with SN12C, > 100 µM (inactive); in the test on RXF 393, > 100 µM (inactive). In addition, the GI50 with HT-29 is > 100 µM (inactive); in the test on XF498, 23.9 µM (inactive); with A549, > 100 µM (inactive); in the test with Malme-3M, > 100 µM (inactive); in the test on RPMI-8226, 33 µM (inactive); in the test on SK-MEL-2 it was > 100 µM (inactive). Also, the GI50 with HOP-62, in the test with TK-10, with SF-295, with SK-MEL-28, in the test with HCC 2998 and with K562 was > 100 µM (inactive) throughout. In the test with SNB-78, the GI50 is > 100 µM (inactive).
Regarding `OCC(O)C(O)c1nn(-c2ccccc2)c2nc3cc(Cl)c(Cl)cc3nc12` (stereo not given), the GI50 is 24.7 µM (inactive) with COLO 205; 16.6 µM (inactive) with CAKI-1; 27.9 µM (inactive) in the test with M14; 23.6 µM in the test on HCT-15; 63.5 µM (inactive) in the test on SN12C; 21.2 µM (inactive) in the test on RXF 393. In addition, the GI50 was 21.9 µM (inactive) with HT-29; 28.5 µM (inactive) with XF498; 15.6 µM (inactive) in the test with A549; 17.2 µM (inactive) in the test on Malme-3M; 8.93 µM (inactive) in the test on RPMI-8226; 22.3 µM (inactive) in the test with SK-MEL-2. In addition, the GI50 in the test on HOP-62 is 47.5 µM (inactive); in the test on TK-10 it was 16.7 µM (inactive); in the test with SF-295 it was 31.4 µM (inactive); in the test with SK-MEL-28 it was 41.3 µM (inactive); in the test on HCC 2998, 31.9 µM (inactive); in the test with K562 it was 13.3 µM (inactive). For the same compound, the GI50 in the test with SNB-78 was 50.2 µM (inactive).
Consider `CC(CC(=O)Nc1ccc(NC(=O)CC(C)/N=N\C(N)=S)cc1)/N=N\C(N)=S` (stereo not given), for which the GI50 was > 100 µM (inactive) with COLO 205; > 100 µM (inactive) with CAKI-1; > 100 µM (inactive) in the test on M14; 85.9 µM in the test on HCT-15; > 100 µM (inactive) with SN12C; > 100 µM (inactive) in the test with RXF 393. The GI50 in the test with HT-29, in the test with XF498, with A549, in the test on Malme-3M, in the test on RPMI-8226 and in the test on SK-MEL-2 was > 100 µM (inactive) each time. Further, the GI50 in the test on HOP-62, in the test on TK-10, with SF-295, in the test on SK-MEL-28, in the test with HCC 2998 and in the test on K562 was > 100 µM (inactive) throughout. The GI50 in the test with SNB-78 was > 100 µM (inactive).
